Assays:
Assay in all cases: relative viability (nuclei count vs DMSO), 5 days (fraction); higher = more cells survive
Trametinib + Pictilisib = compound: CC(=O)Nc1cccc(-n2c(=O)n(C3CC3)c(=O)c3c(Nc4ccc(I)cc4F)n(C)c(=O)c(C)c32)c1 [Trametinib] + CS(=O)(=O)N1CCN(Cc2cc3nc(-c4cccc5[nH]ncc45)nc(N4CCOCC4)c3s2)CC1 [Pictilisib] (partner 1 µM)
Method in brief: (§1)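 Five library-drug doses in √10 steps were combined with a fixed anchor-drug dose, or a single drug was given alone, by pin tool to lung cancer cell lines in 1536-well plates the day after seeding. Nuclei were stained and counted after 5 days. Relative viability is the nuclei count in treated wells over that in vehicle wells, taken as the median of duplicate plates.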

[1] = compound: CN1C=C(C2=CC=CC=C21)/C=C\3/C4=C(C=CC=N4)NC3=O + NC(=O)Nc1cc(-c2cccc(F)c2)sc1C(=O)N[C@H]1CCCNC1 [AZD7762] (partner 0.2 µM)
Method in brief: as §1

[2] = compound: CN1C=C(C2=CC=CC=C21)/C=C\3/C4=C(C=CC=N4)NC3=O + C[C@@H](Oc1cc(-c2cnn(C3CCNCC3)c2)cnc1N)c1c(Cl)ccc(F)c1Cl [Crizotinib] (partner 1 µM)
Method in brief: as §1

[3] = compound: CN1C=C(C2=CC=CC=C21)/C=C\3/C4=C(C=CC=N4)NC3=O + CC1(C)CCC(c2ccc(Cl)cc2)=C(CN2CCN(c3ccc(C(=O)NS(=O)(=O)c4ccc(N[C@H](CCN5CCOCC5)CSc5ccccc5)c(S(=O)(=O)C(F)(F)F)c4)cc3)CC2)C1 [Navitoclax] (partner 0.5 µM)
Method in brief: as §1

Cell Line | relative viability (Trametinib + Pictilisib; first compound 0.0025 µM) | relative viability (Trametinib + Pictilisib; first compound 0.007906 µM) | relative viability (Trametinib + Pictilisib; first compound 0.025 µM) | relative viability (Trametinib + Pictilisib; first compound 0.07906 µM) | relative viability (Trametinib + Pictilisib; first compound 0.25 µM) | relative viability ([1]; first compound 0.02 µM) | relative viability ([1]; first compound 0.06325 µM) | relative viability ([1]; first compound 0.6325 µM) | relative viability ([1]; first compound 2 µM) | relative viability ([2]; first compound 0.02 µM) | relative viability ([2]; first compound 0.06325 µM) | relative viability ([2]; first compound 0.2 µM) | relative viability ([2]; first compound 0.6325 µM) | relative viability ([2]; first compound 2 µM) | relative viability ([3]; first compound 0.02 µM) | relative viability ([3]; first compound 0.06325 µM) | relative viability ([3]; first compound 0.2 µM) | relative viability ([3]; first compound 0.6325 µM) | relative viability ([3]; first compound 2 µM) | relative viability ([1]; first compound 0.2 µM)
HOP-62 | 0.597 | 0.229 | 0.128 | 0.133 | 0.0772 | 0.569 | 0.559 | 0.919 | 0.774 | 0.902 | 0.938 | 0.789 | 0.918 | 1.01 | 1.25 | 1.14 | 0.703 | 0.99 | 1 | 
LC-2-ad | 0.412 | 0.444 | 0.237 | 0.216 | 0.195 | 0.836 | 0.835 | 0.821 | 0.861 | 0.439 | 0.468 |  | 0.409 | 0.686 | 0.412 | 0.304 | 0.439 | 0.412 | 0.389 | 0.754
LCLC-97TM1 | 0.141 | 0.135 | 0.11 | 0.128 | 0.0971 | 0.177 | 0.188 | 0.168 | 0.284 | 0.232 |  |  | 0.331 | 0.419 | 0.322 |  |  | 0.566 | 0.36 | 0.0774
LK-2 | 0.457 | 0.571 | 0.54 | 0.575 | 0.294 | 0.173 | 0.278 | 0.32 | 0.271 |  | 0.205 | 0.202 | 0.243 | 0.219 |  | 0.683 | 0.638 | 0.726 | 1.04 | 0.162
LOU-NH91 | 0.469 | 0.497 | 0.479 | 0.45 | 0.353 | 0.684 | 0.641 | 0.664 | 0.764 | 0.74 | 0.649 | 0.672 | 0.709 | 0.724 | 0.555 | 0.603 | 0.596 | 0.602 | 0.678 | 0.402
LU99A | 0.279 | 0.318 | 0.217 | 0.197 | 0.197 | 0.372 | 0.435 | 0.331 | 0.377 | 0.522 | 0.479 | 0.607 | 0.568 | 0.603 | 0.86 | 0.849 | 0.857 | 0.865 | 0.79 | 0.345
LXF-289 | 0.674 | 0.618 | 0.424 | 0.388 | 0.264 | 1.14 | 1.16 | 1.21 | 1.1 | 0.775 | 0.785 | 0.881 | 0.849 | 0.895 | 0.962 | 0.908 | 0.97 | 1.01 | 1.01 | 0.975
NCI-H23 | 0.348 | 0.357 | 0.217 | 0.27 | 0.189 | 0.264 | 0.232 | 0.252 | 0.189 | 0.453 | 0.504 |  | 0.62 | 0.624 | 0.558 | 0.764 |  | 0.807 | 0.931 | 0.167
NCI-H322M | 0.522 | 0.486 | 0.35 | 0.344 | 0.336 | 0.58 | 0.488 | 0.592 | 0.617 | 0.827 | 0.841 | 0.876 | 0.902 | 0.933 | 1.31 | 1.3 | 1.12 | 1.12 | 1.29 | 0.509
NCI-H441 | 0.44 | 0.306 | 0.234 | 0.214 | 0.163 | 1.15 | 1.21 | 1.06 | 1.05 | 0.972 | 0.706 | 0.72 | 0.89 | 0.767 | 1.08 |  | 0.906 | 0.596 | 0.875 | 1.19
NCI-H460 | 0.302 | 0.23 | 0.156 | 0.125 | 0.0758 | 0.627 | 0.576 | 0.677 | 0.574 | 0.994 | 0.99 | 0.932 |  | 0.902 | 1.27 | 1.21 | 1.39 |  | 1.43 | 0.263
NCI-H596 | 0.367 | 0.316 | 0.338 | 0.314 | 0.33 | 1 | 1.04 | 1 | 1.21 | 0.932 | 1.01 | 0.936 | 0.89 | 0.891 | 0.957 | 0.925 | 0.901 | 0.779 | 0.902 | 0.92
NCI-H647 | 0.348 | 0.301 | 0.235 | 0.206 | 0.127 | 0.348 | 0.418 | 0.304 | 0.378 | 0.967 | 0.923 | 1.04 | 1.03 | 0.906 | 0.767 | 0.983 |  | 0.919 | 0.935 | 0.0952
NCI-H727 | 0.333 | 0.207 | 0.176 | 0.149 | 0.25 | 0.575 | 0.563 | 0.591 | 0.511 | 0.835 | 0.614 | 0.691 | 0.81 | 0.808 | 0.396 | 0.349 | 0.385 | 0.372 | 0.4 | 0.405
